# Test results from PMC8286840, “Identifying SARS-CoV-2 antiviral compounds by screening for small molecule inhibitors of Nsp3 papain-like protease” (Biochemical Journal, 2021).
# Structures can show the parent of a compound that is named as a salt. Where two headings read alike, the source gives them in different places.
# Key:
# [1] = target: T1, SARS-CoV-2 PLpro (nsp3 1564–1878) (Severe acute respiratory syndrome coronavirus 2, UniProt P0DTD1); experiment: biochemical; parameters: FRET-quenched peptide (Pro3) cleavage by PLpro, 10 min pre-incubation, slope over 20 min, normalised to no-compound control; settings: high concentration screen, read-out: % of control remaining
# [2] = target: T1, SARS-CoV-2 PLpro (nsp3 1564–1878); experiment: biochemical; parameters: FRET-quenched peptide (Pro3) cleavage by PLpro, 10 min pre-incubation, slope over 20 min, normalised to no-compound control; settings: low concentration screen, read-out: % of control remaining
smiles,measurement,setting,value
CC(=O)OCC[N+](C)(C)C [Acetylcholine],remaining activity at 3.75 µM,[1]; Well no.=1550,98.7%
same,remaining activity at 1.25 µM,[2]; Well no.=1550,96.7%
Cn1cc(CNCC2CCN(c3ncc(C(=O)NO)cn3)CC2)c2ccccc21 [JNJ-26481585],remaining activity at 3.75 µM,[1]; Well no.=5224,98.4%
same,remaining activity at 1.25 µM,[2]; Well no.=5224,98.6%
CCCN(CCC)[C@@H]1CCc2c(F)ccc(O)c2C1 [R(+)-UH-301 hydrochloride],remaining activity at 3.75 µM,[1]; Well no.=1382,98.5%
same,remaining activity at 1.25 µM,[2]; Well no.=1382,98.7%
CC(C)OC(=O)C(C(=O)OC(C)C)=C1SC=CS1 [Malotilate],remaining activity at 3.75 µM,[1]; Well no.=8884,84.3%
same,remaining activity at 1.25 µM,[2]; Well no.=8884,85.8%
CC(=O)C1=C(O)C=C2Oc3c(C(C)=O)c(O)c(C)c(O)c3[C@@]2(C)C1=O [(+)-Usnic acid],remaining activity at 3.75 µM,[1]; Well no.=3394,102%
same,remaining activity at 1.25 µM,[2]; Well no.=3394,98.2%
Cc1ccc(C(=O)COC(=O)c2cccc(NC(=O)c3ccc([N+](=O)[O-])cc3[N+](=O)[O-])c2)cc1 [FM19G11],remaining activity at 3.75 µM,[1]; Well no.=5606,96.9%
same,remaining activity at 1.25 µM,[2]; Well no.=5606,93.7%
COc1ccc(/C=C/C(=O)c2c(O)cc(OC)cc2OC)cc1 [Flavokawain A],remaining activity at 3.75 µM,[1]; Well no.=3607,105%
same,remaining activity at 1.25 µM,[2]; Well no.=3607,104%
Cn1cc(C2=C(c3cn(C4CCN(Cc5ccccn5)CC4)c4ccccc34)C(=O)NC2=O)c2ccccc21 [Enzastaurin (LY317615)],remaining activity at 3.75 µM,[1]; Well no.=5003,87.9%
same,remaining activity at 1.25 µM,[2]; Well no.=5003,93%
CC(C)C(=O)Nc1ncc(-c2cc(C(F)F)nn2-c2c(Cl)cccc2Cl)s1 [BMS-5],remaining activity at 3.75 µM,[1]; Well no.=2705,96.9%
same,remaining activity at 1.25 µM,[2]; Well no.=2705,100%
CCCNC(C)C(=O)Nc1ccccc1C (stereo not shown) [Prilocaine],remaining activity at 3.75 µM,[1]; Well no.=4616,93.7%
same,remaining activity at 1.25 µM,[2]; Well no.=4616,100%
NC(=O)C(c1ccccc1)(c1ccccc1)[C@@H]1CCN(CCc2ccc3c(c2)CCO3)C1 [Darifenacin (hydrobromide)],remaining activity at 3.75 µM,[1]; Well no.=7341,89.4%
same,remaining activity at 1.25 µM,[2]; Well no.=7341,95.3%
O=c1c(-n2ccnn2)c[nH]n1-c1cc(N2CCOCC2)ncn1 [Molidustat (BAY 85-3934)],remaining activity at 3.75 µM,[1]; Well no.=8542,111%
same,remaining activity at 1.25 µM,[2]; Well no.=8542,101%
C#C[C@]1(O)C=C[C@H]2[C@@H]3CCC4=CC(=O)CC[C@@H]4[C@H]3CC[C@@]21CC [Gestodene],remaining activity at 3.75 µM,[1]; Well no.=5260,96.8%
same,remaining activity at 1.25 µM,[2]; Well no.=5260,93.5%
CCCCc1ncc(/C=C(\Cc2cccs2)C(=O)O)n1Cc1ccc(C(=O)O)cc1 [Eprosartan (mesylate)],remaining activity at 3.75 µM,[1]; Well no.=8191,105%
same,remaining activity at 1.25 µM,[2]; Well no.=8191,105%
COc1ccc(S(=O)(=O)N(CCO)c2ccccc2CN(C)C/C=C/c2ccc(Cl)cc2)cc1 [KN-93],remaining activity at 3.75 µM,[1]; Well no.=2556,102%
same,remaining activity at 1.25 µM,[2]; Well no.=2556,103%
CCN(CC)Cc1ccc(C(=O)N(CCc2ccccc2OC)[C@@H]2CCNC2)cc1 [PF429242 (dihydrochloride)],remaining activity at 3.75 µM,[1]; Well no.=6996,97.5%
same,remaining activity at 1.25 µM,[2]; Well no.=6996,102%
CCC(NC(C)C)C(O)c1ccc(O)c(O)c1 (stereo not shown) [Isotharine mesylate],remaining activity at 3.75 µM,[1]; Well no.=915,104%
same,remaining activity at 1.25 µM,[2]; Well no.=915,104%
CCOC(=O)[C@H](CCc1ccccc1)N[C@H]1CCc2ccccc2N(CC(=O)O)C1=O [Benazepril HCl],remaining activity at 3.75 µM,[1]; Well no.=5153,101%
same,remaining activity at 1.25 µM,[2]; Well no.=5153,97.7%
O=[N+]([O-])c1cccc2c(Br)[nH]nc12 [3-Bromo-7-nitroindazole],remaining activity at 3.75 µM,[1]; Well no.=27,96.1%
same,remaining activity at 1.25 µM,[2]; Well no.=27,98.5%
"C/C(Nc1ccccc1)=C1\C(=O)NC(Cc2ccccc2)C1=O (stereo not shown) [(3E)-3-(1-anilinoethylidene)-5-benzyl-2,4-pyrrolidinedione]",remaining activity at 3.75 µM,[1]; Well no.=5686,97.8%
same,remaining activity at 1.25 µM,[2]; Well no.=5686,96.9%
CCCCCCCCCCCCCCCCCCCC(=O)O [Eicosanoic acid],remaining activity at 3.75 µM,[1]; Well no.=4400,93.4%
same,remaining activity at 1.25 µM,[2]; Well no.=4400,94.6%
C[C@H](Cc1ccc(OCC(=O)O)cc1)NC[C@H](O)c1cccc(Cl)c1 (racemic) [BRL 37344 sodium],remaining activity at 3.75 µM,[1]; Well no.=183,103%
same,remaining activity at 1.25 µM,[2]; Well no.=183,98%
CC(C)=CCC/C(C)=C/COc1ccc2ccc(=O)oc2c1 [Auraptene],remaining activity at 3.75 µM,[1]; Well no.=3511,104%
same,remaining activity at 1.25 µM,[2]; Well no.=3511,101%
O=c1cc(O)cc(/C=C/c2ccc(O)c(O)c2)o1 [Hispidin],remaining activity at 3.75 µM,[1]; Well no.=754,96.8%
same,remaining activity at 1.25 µM,[2]; Well no.=754,98.7%
CC(C)NCC(O)c1ccc(NS(C)(=O)=O)cc1 (stereo not shown) [Sotalol.HCl],remaining activity at 3.75 µM,[1]; Well no.=1785,102%
same,remaining activity at 1.25 µM,[2]; Well no.=1785,103%
COc1cc2ncc(-c3ccccc3)nc2cc1OC [Tyrphostin AG 1296],remaining activity at 3.75 µM,[1]; Well no.=1477,97.9%
same,remaining activity at 1.25 µM,[2]; Well no.=1477,97.5%
N#C/C(=C\c1ccc(O)c(O)c1)C(=O)c1ccc(O)c(O)c1 [Tyrphostin AG 538],remaining activity at 3.75 µM,[1]; Well no.=1468,92.4%
same,remaining activity at 1.25 µM,[2]; Well no.=1468,93.5%
CC(C)[C@H]1CC[C@H](C(=O)N[C@H](Cc2ccccc2)C(=O)O)CC1 [Nateglinide],remaining activity at 3.75 µM,[1]; Well no.=1546,103%
same,remaining activity at 3.75 µM,[1]; Well no.=7504,102%
same,remaining activity at 1.25 µM,[2]; Well no.=1546,103%
same,remaining activity at 1.25 µM,[2]; Well no.=7504,102%
COc1ccccc1OCC(O)COC(N)=O (stereo not shown) [Methocarbamol],remaining activity at 3.75 µM,[1]; Well no.=8238,94.6%
same,remaining activity at 1.25 µM,[2]; Well no.=8238,98%
N[C@@H](CS(=O)O)C(=O)O [L-Cysteinesulfinic Acid],remaining activity at 3.75 µM,[1]; Well no.=128,96.5%
same,remaining activity at 1.25 µM,[2]; Well no.=128,93.4%
CN1CCN(C2=Nc3ccccc3Sc3ccc(Cl)cc32)CC1 [Clothiapine],remaining activity at 3.75 µM,[1]; Well no.=1815,99.6%
same,remaining activity at 1.25 µM,[2]; Well no.=1815,102%
CN1CC[C@@]2(C)c3cc(O)ccc3N(C)[C@@H]12 [(-)-Eseroline fumarate],remaining activity at 3.75 µM,[1]; Well no.=751,93.5%
same,remaining activity at 1.25 µM,[2]; Well no.=751,96.8%
O=C(Nc1cccc(Nc2nccc(Nc3cccc(C(F)(F)F)c3)n2)c1)C1CC1 [Aurora Kinase Inhibitor III],remaining activity at 3.75 µM,[1]; Well no.=2326,102%
same,remaining activity at 3.75 µM,[1]; Well no.=2659,94%
same,remaining activity at 1.25 µM,[2]; Well no.=2326,105%
same,remaining activity at 1.25 µM,[2]; Well no.=2659,95.7%
CC[C@@H]1C(=O)OC[C@@H]1Cc1cncn1C [Pilocarpine nitrate],remaining activity at 3.75 µM,[1]; Well no.=1150,97%
same,remaining activity at 1.25 µM,[2]; Well no.=1150,96.8%
C[C@]1(C(=O)O)[C@@H]2CC[C@@H](O2)[C@@]1(C)C(=O)O [Cantharidic Acid],remaining activity at 3.75 µM,[1]; Well no.=378,88.7%
same,remaining activity at 1.25 µM,[2]; Well no.=378,87.8%
CC1=C(C(=O)O)N2C(=O)[C@@H](NC(=O)[C@H](N)c3ccccc3)[C@H]2SC1 [Cephalexin hydrate],remaining activity at 3.75 µM,[1]; Well no.=34,95.3%
same,remaining activity at 1.25 µM,[2]; Well no.=34,95.4%
